Here are results for 31 compounds from ChEMBL document CHEMBL1146301, “Phenylglycine as a novel P2 scaffold in hepatitis C virus NS3 protease inhibitors” (Bioorg Med Chem, 2007).

Experiment [1] is described as follows: Inhibition of HCV NS3 protease by FRET assay. Details: species or system Hepacivirus hominis.
Experiment [2] concerns Hepatitis C virus. Briefly: Antiviral activity against HCV in replicon assay. The class given is functional, Hepacivirus hominis. The note with it: read-out: ED50 (the source's name).
Experiment [3] relates to Hepatitis C virus. Put plainly: Inhibition of HCV 1b NS3 protease. Details: species or system Hepatitis C virus subtype 1b.
The target of another experiment is NS3 (Hepatitis C virus, UniProt A3EZJ3). Briefly: Inhibition of HCV 1a NS3 protease. Details: species or system Hepatitis C virus subtype 1a.

A word on the Ki: it is the dissociation constant of the complex between target and ligand, obtained from inhibition or displacement.

Starred links: 1 amine or outer side, 2 acyl side, 3 side chain; linkers in the order of their positions; H or OH if unused. Non-standard residues stand in square brackets, D forms with d. Residues, ends and D or L forms follow the SMILES beside them. Chg = N[C@H](C(=O)O)C1CCCCC1; Suc = O=C(CCC(=O)[*:2])[*:1]

NS3, sequence (A3EZJ3 whole entry): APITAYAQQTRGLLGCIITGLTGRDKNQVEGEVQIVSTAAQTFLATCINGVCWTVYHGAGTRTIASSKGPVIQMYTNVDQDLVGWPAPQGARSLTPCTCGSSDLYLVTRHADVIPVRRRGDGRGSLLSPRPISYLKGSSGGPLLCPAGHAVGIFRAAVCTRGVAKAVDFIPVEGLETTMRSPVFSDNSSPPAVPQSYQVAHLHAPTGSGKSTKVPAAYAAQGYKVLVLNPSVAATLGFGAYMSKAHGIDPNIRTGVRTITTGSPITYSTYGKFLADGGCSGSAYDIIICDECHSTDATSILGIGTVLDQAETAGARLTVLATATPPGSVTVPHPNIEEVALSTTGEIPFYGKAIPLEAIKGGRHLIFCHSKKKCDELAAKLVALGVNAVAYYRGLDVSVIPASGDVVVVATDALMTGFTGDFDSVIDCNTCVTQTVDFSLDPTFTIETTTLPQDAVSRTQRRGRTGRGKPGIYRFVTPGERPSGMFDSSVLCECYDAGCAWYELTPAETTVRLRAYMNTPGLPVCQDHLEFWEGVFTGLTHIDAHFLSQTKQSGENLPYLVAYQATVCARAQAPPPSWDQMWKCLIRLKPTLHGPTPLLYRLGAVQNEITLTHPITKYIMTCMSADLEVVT

Regarding `C=C[C@@H]1C[C@]1(NC(=O)[C@H](NC(=O)[C@@H](NC(=O)OC(C)(C)C)C(C)(C)C)c1ccc(OC)cc1)C(=O)NS(=O)(=O)C1CC1`, the inhibition constant (Ki) in experiment [1] came out at 34000 nM.
The same measure, in the same setting: the same measure for `CCC[C@H](NC(=O)[C@@H](NC(=O)[C@@H](NC(=O)OC(C)(C)C)C(C)C)c1ccc(O)cc1)C(=O)NS(=O)(=O)c1ccccc1`: 130000 nM.
Consider `COc1ccc2c(Oc3ccc([C@@H]4NC(=O)[C@@H](NC(=O)OC(C)(C)C)CCCCC/C=C\[C@@H]5C[C@@]5(C(=O)O)NC4=O)cc3)cc(-c3ccccc3)nc2c1`, for which the EC50 in the experiment with Hepatitis C virus [2] is > 10000 nM. Moreover, the inhibitory constant (Ki) in experiment [1] worked out at 790 nM.
The corresponding values for `COc1ccc2c(Oc3ccc([C@H](NC(=O)[C@@H](NC(=O)OC(C)(C)C)C(C)(C)C)C(=O)NC4(C(=O)NS(=O)(=O)c5ccccc5)CC4)cc3)cc(-c3ccccc3)nc2c1` are > 10000 nM and 1200 nM.
For the compound `C=C[C@@H]1C[C@]1(NC(=O)[C@@H](NC(=O)[C@@H](NC(=O)OC(C)(C)C)C(C)(C)C)c1ccc(Oc2nc(-c3ccncc3)cc3ccccc23)cc1)C(=O)NS(=O)(=O)C1CC1`, the EC50 with Hepatitis C virus [2] is > 10000 nM. The inhibition constant Ki in experiment [1] is 290 nM.
Take `COc1ccc2c(Oc3ccc([C@@H]4NC(=O)[C@@H](NC(=O)OC(C)(C)C)CCCCC/C=C\[C@@H]5C[C@@]5(C(=O)NS(=O)(=O)c5ccccc5)NC4=O)cc3)cc(-c3ccccc3)nc2c1`: in the experiment on Hepatitis C virus [2], the EC50 was > 10000 nM. In addition, the affinity in experiment [1], expressed as Ki, was 95 nM.
Consider `COc1ccc2c(Oc3ccc([C@@H]4NC(=O)[C@@H](NC(=O)OC(C)(C)C)CCCCC/C=C\[C@@H]5C[C@@]5(C(=O)NS(=O)(=O)C5CC5)NC4=O)cc3)cc(-c3ccccc3)nc2c1`, for which the EC50 with Hepatitis C virus [2] turned out to be 4600 nM. The Ki in experiment [1] turned out to be 76 nM.
On to `C=C[C@@H]1C[C@]1(NC(=O)[C@@H](NC(=O)[C@@H](NC(=O)OC(C)(C)C)C(C)(C)C)c1ccc(Oc2nc(Cl)cc3ccccc23)cc1)C(=O)NS(=O)(=O)C1CC1`, for which, in the experiment on Hepatitis C virus [2], the EC50 was > 10000 nM. The Ki in experiment [1] amounted to 410 nM.
On to `COc1ccc2c(O[C@@H]3C[C@H]4C(=O)N[C@]5(C(=O)O)C[C@H]5/C=C\CCCCC[C@H](NC(=O)OC5CCCC5)C(=O)N4C3)cc(-c3csc(NC(C)C)n3)nc2c1` [CILUPREVIR], for which the Ki with Hepatitis C virus [3] amounted to 0.66 nM; on NS3 it was 0.3 nM.
In the case of `COc1ccc2c(Oc3ccc([C@H](NC(=O)[C@@H](NC(=O)OC(C)(C)C)C(C)(C)C)C(=O)N[C@@H](CC(F)F)C(=O)NS(=O)(=O)C4CC4)cc3)cc(-c3ccccc3)nc2c1`, the EC50 in the experiment on Hepatitis C virus [2] was > 10000 nM. The affinity in experiment [1] corresponds to a Ki of 780 nM.
The like results for `C=C[C@@H]1C[C@]1(NC(=O)[C@@H](NC(=O)[C@@H](NC(=O)OC(C)(C)C)C(C)(C)C)c1ccc(Oc2cc(-c3ccccc3)nc3cc(OC)ccc23)cc1)C(=O)NS(=O)(=O)C1CC1` were, in that order, > 10000 nM and 180 nM.
Consider `C=C[C@@H]1C[C@]1(NC(=O)[C@@H]1C[C@@H](Oc2cc(-c3ccccc3)nc3cc(OC)ccc23)CN1C(=O)[C@@H](NC(=O)OC(C)(C)C)C(C)C)C(=O)NS(=O)(=O)c1ccccc1`, for which the Ki in experiment [1] stood at 0.76 nM.
Same read-out and setting: the same measure for `CC[C@@H](C)[C@H](NC(=O)[C@@H](NC(=O)CCC(=O)O)C1CCCCC1)C(=O)N[C@H](C(=O)N[C@@H](CS)C(=O)O)c1ccccc1`: 1000 nM; for `CCC[C@H](NC(=O)[C@@H]1C[C@@H](Oc2cc(-c3ccccc3)nc3cc(OC)ccc23)CN1C(=O)[C@@H](NC(=O)OC(C)(C)C)C(C)C)C(=O)NS(=O)(=O)c1ccccc1`: 300 nM; for `CC(C)(C)OC(=O)N[C@H]1CCCCC/C=C\[C@@H]2C[C@@]2(C(=O)O)NC(=O)[C@H](c2ccc(Oc3nc(Cl)cc4ccccc34)cc2)NC1=O`: 1100 nM.
`C=C[C@@H]1C[C@]1(NC(=O)[C@@H](NC(=O)[C@@H](NC(=O)OC(C)(C)C)C(C)C)c1ccc(Oc2cc(-c3ccccc3)nc3cc(OC)ccc23)cc1)C(=O)NS(=O)(=O)c1ccccc1`: the EC50 in the experiment on Hepatitis C virus [2] was > 10000 nM. In experiment [1], this compound displayed an inhibition constant (Ki) of 270 nM.
Consider `CC(C)(C)OC(=O)N[C@H]1CCCCC/C=C\[C@@H]2C[C@@]2(C(=O)NS(=O)(=O)C2CC2)NC(=O)[C@H](c2ccc(Oc3nc(Cl)cc4ccccc34)cc2)NC1=O`, for which the EC50 in the experiment on Hepatitis C virus [2] was > 10000 nM. In experiment [1], the affinity, expressed as Ki, was 74 nM.
Turning to `C=C[C@@H]1C[C@]1(NC(=O)[C@H](NC(=O)[C@@H](NC(=O)OC(C)(C)C)C(C)(C)C)c1ccc(Oc2nc(Cl)cc3ccccc23)cc1)C(=O)NS(=O)(=O)C1CC1`, the inhibitory constant (Ki) in experiment [1] was determined as 1100 nM.
In turn, `C=C[C@@H]1C[C@]1(NC(=O)[C@@H](NC(=O)[C@@H](NC(=O)OC(C)(C)C)C(C)(C)C)c1ccc(Oc2ccccn2)cc1)C(=O)NS(=O)(=O)C1CC1` came in with an inhibitory constant (Ki) in experiment [1] of 7000 nM.
In experiment [1], `CC(C)(C)OC(=O)N[C@H]1CCCCC/C=C\[C@@H]2C[C@@]2(C(=O)O)NC(=O)[C@H](c2ccc(Oc3nc(-c4ccncc4)cc4ccccc34)cc2)NC1=O` had a Ki of 1300 nM.
Same read-out and setting: the same measure for `C=C[C@@H]1C[C@]1(NC(=O)[C@@H](NC(=O)[C@@H](NC(=O)OC(C)(C)C)C(C)(C)C)c1ccc(OC)cc1)C(=O)NS(=O)(=O)C1CC1`: 5400 nM.
In the case of `C=C[C@@H]1C[C@]1(NC(=O)[C@@H](NC(=O)[C@@H](NC(=O)OC(C)(C)C)C(C)(C)C)c1ccc(Oc2cccc(Cl)n2)cc1)C(=O)NS(=O)(=O)C1CC1`, the affinity in experiment [1], expressed as Ki, was 2600 nM.
Consider `CCC[C@H](NC(=O)[C@@H](NC(=O)[C@@H](NC(=O)OC(C)(C)C)C(C)(C)C)c1ccc(Oc2cc(-c3ccccc3)nc3cc(OC)ccc23)cc1)C(=O)NS(=O)(=O)c1ccccc1`, for which the EC50 in the experiment on Hepatitis C virus [2] was > 10000 nM. Also, the inhibition constant Ki in experiment [1] is 230 nM.
In experiment [1], `CCC[C@H](NC(=O)[C@@H](NC(=O)[C@@H](NC(=O)OC(C)(C)C)C(C)C)c1ccc(Oc2cc(-c3ccccc3)nc3cc(OC)ccc23)cc1)C(=O)NS(=O)(=O)c1ccccc1` registered an inhibitory constant (Ki) of 280 nM.
Same read-out and setting: the same measure for `COc1ccc2c(Oc3ccc(C(NC(=O)[C@@H](NC(=O)OC(C)(C)C)C(C)(C)C)C(=O)N[C@@H](CC(F)F)C(=O)O)cc3)cc(-c3ccccc3)nc2c1` (stereo partly specified): 2800 nM; for `CC(C)(C)OC(=O)N[C@H]1CCCCC/C=C\[C@@H]2C[C@@]2(C(=O)NS(=O)(=O)C2CC2)NC(=O)[C@H](c2ccc(Oc3nc(-c4ccncc4)cc4ccccc34)cc2)NC1=O`: 240 nM.
With `C=C[C@@H]1C[C@]1(NC(=O)C(NC(=O)[C@@H](NC(=O)OC(C)(C)C)C(C)C)c1ccc(Oc2cc(-c3ccccc3)nc3cc(OC)ccc23)cc1)C(=O)O` (stereo partly specified), the EC50 in the experiment with Hepatitis C virus [2] came out at 8500 nM. For the same compound, the Ki in experiment [1] was found to be 2400 nM.
The like results for `C=C[C@@H]1C[C@]1(NC(=O)[C@@H](NC(=O)[C@@H](NC(=O)OC(C)(C)C)C(C)(C)C)c1ccc(Oc2cc(-c3ccccc3)nc3cc(OC)ccc23)cc1)C(=O)NS(=O)(=O)c1ccccc1` were, in that order, > 10000 nM and 230 nM.
Regarding `CC[C@H](C)[C@H](NC(=O)[C@@H](NC(=O)CCC(=O)O)C1CCCCC1)C(=O)N1CCC[C@H]1C(=O)N[C@@H](CS)C(=O)O` (Suc-[Chg]IPC-OH), the inhibition constant (Ki) in experiment [1] was found to be 23000 nM.
Consider `C=C[C@@H]1C[C@]1(NC(=O)[C@H](NC(=O)[C@@H](NC(=O)OC(C)(C)C)C(C)C)c1ccc(Oc2cc(-c3ccccc3)nc3cc(OC)ccc23)cc1)C(=O)NS(=O)(=O)c1ccccc1`, for which the EC50 with Hepatitis C virus [2] is > 10000 nM. This compound also gave a Ki in experiment [1] of 400 nM.
In turn, `C=C[C@@H]1C[C@]1(NC(=O)[C@@H](NC(=O)[C@@H](NC(=O)OC(C)(C)C)C(C)C)c1ccc(Oc2cc(-c3ccccc3)nc3cc(OC)ccc23)cc1)C(=O)NS(=O)(=O)C1CC1` registered a Ki in experiment [1] of 200 nM.
